Experimental data from patent US12486253B2, “Therapeutics for the degradation of mutant BRAF” (C4 THERAPEUTICS, INC., priority 2021, dated 2025).

Legend:
Type in all cases: cell-based
[1] = tested on: H1666 cells endogenously expressing the class III BRAF mutation G466V; experiment: Cellular growth over time in H1666 cells
BRAF V600E = BRAF V600E (Homo sapiens, UniProt P15056, V600E); experiment: Global proteomics profiling, A375 cells; set-up: endogenous in cells; host or cells: A375; settings: 300 nM, 24 hours, compared to 300 nM dabrafenib treatment
Protocol: (§1) Each cell line was treated in duplicate with either DMSO or Compound 157 (final concentration 300 nM) for 24 hours in an incubator at 37° C. with 5% CO2. After the 24-hour incubation, cells were harvested, washed twice with PBS, and snap frozen in liquid nitrogen. Samples were re-suspended in lysis buffer [8 M urea, 50 mM HEPES (pH 8.5), 50 mM NaCl, 1× protease inhibitor cocktail] and lysed by sonication at 4° C. with 85% amplitude in a pulse setting with 30 seconds on and 30 seconds off for a total sonication time of 5 minutes. Lysates were centrifuged at maximum speed for 10 minutes at 4° C. and the supernatant collected, reduced for 1 hour at room temperature with 5 mM TCEP, and the cysteine residues were then alkylated with 15 mM iodoacetamide (room temperature, in dark, 30 minutes). Protein content was extracted by methanol-chloroform precipitation and subsequent ice-cold acetone washes. Protein pellets were resuspended in 8 M urea, 50 mM HEPES (pH 8.5) buffer and protein concentrations were measured by BCA assay. […]
(§2) For peptide tandem mass tag (TMT) labeling, 100 μg of peptides per sample was prepared at […] concentration in 200 mM HEPES (pH 8.5), 30% acetonitrile (ACN) and each the specific TMT reagent. […] TMT reporter ion intensities were quantified by extracting the signal-to-noise ratio for each. […]

[2] = target: T1, BRAF class II mutant G469A (Homo sapiens, UniProt P15056, G469A); experiment: Western blot of engineered HEK-293T cells expressing class II mutant G469A; settings: lentivirus expression
T1 construct: host or cells: HEK-293T, lentiviral expression

ERK phosphorylation = ERK phosphorylation (pERK) in A375 cells
RAF1 (a.k.a CRAF) = RAF1 (a.k.a CRAF) (Homo sapiens, UniProt P04049); experiment: Global proteomics profiling, A375 cells; set-up: endogenous in cells; host or cells: A375 (A8.2); settings: 300 nM, 24 hours
Protocol: as §1, §2

T1 sequence (P15056 whole entry G469A): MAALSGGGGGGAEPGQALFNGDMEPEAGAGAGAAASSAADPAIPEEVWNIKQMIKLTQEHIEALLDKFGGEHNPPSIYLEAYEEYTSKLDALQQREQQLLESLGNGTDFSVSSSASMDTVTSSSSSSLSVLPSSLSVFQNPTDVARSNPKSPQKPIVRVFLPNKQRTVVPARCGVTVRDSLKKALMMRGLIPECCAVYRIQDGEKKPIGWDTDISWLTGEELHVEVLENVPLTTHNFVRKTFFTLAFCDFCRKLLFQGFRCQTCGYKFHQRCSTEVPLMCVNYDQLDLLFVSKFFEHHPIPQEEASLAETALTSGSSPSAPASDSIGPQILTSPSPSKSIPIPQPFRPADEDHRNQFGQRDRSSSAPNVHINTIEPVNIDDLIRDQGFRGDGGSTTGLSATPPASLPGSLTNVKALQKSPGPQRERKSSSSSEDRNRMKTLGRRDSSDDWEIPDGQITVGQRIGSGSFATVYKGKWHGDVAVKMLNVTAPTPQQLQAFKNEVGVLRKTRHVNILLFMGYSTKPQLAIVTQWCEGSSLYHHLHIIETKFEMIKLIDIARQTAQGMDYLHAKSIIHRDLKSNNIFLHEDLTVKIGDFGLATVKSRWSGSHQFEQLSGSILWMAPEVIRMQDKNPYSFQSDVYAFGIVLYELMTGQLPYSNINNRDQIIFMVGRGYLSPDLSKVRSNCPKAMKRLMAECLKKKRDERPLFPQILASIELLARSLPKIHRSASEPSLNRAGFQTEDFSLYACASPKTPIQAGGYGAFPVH
BRAF V600E, sequence (P15056 whole entry V600E): as the sequence (P15056 whole entry G469A) above, with A469G, V600E counted along it
RAF1 (a.k.a CRAF), sequence (P04049 whole entry): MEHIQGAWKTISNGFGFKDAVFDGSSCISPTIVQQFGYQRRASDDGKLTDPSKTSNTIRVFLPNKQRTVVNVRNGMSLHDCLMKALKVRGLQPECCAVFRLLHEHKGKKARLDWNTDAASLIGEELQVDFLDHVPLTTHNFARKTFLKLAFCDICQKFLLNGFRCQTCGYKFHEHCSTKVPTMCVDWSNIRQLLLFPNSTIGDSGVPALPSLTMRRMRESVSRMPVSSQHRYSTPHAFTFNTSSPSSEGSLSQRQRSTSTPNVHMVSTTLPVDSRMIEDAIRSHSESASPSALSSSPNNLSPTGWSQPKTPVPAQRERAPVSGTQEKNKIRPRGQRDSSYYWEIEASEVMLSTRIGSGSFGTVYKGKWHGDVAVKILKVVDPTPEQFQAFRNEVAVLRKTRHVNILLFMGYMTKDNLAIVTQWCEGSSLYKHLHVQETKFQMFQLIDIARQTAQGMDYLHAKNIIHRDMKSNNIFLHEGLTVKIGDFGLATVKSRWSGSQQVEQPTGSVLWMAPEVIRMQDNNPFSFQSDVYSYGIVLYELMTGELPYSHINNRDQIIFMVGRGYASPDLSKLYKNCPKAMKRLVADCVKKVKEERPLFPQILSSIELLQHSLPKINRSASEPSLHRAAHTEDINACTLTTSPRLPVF

CCN(C)S(=O)(=O)Nc1ccc(F)c(Oc2ccc3ncn([C@H]4COC5(CCN(C(=O)CC6(O)CCN(c7cc8c(cc7F)c(N7CCC(=O)NC7=O)nn8C)CC6)CC5)C4)c(=O)c3c2)c1C#N [Compound 157, (3R)-3-[6-[2-cyano-3-[[ethyl(methyl)sulfamoyl]amino]-6-fluorophenoxy]-4-oxoquinazolin-3-yl]-8-[2-[1-[3-(2,4-dioxo-1,3-diazinan-1-yl)-5-fluoro-1-methylindazol-6-yl]-4-hydroxypiperidin-4-yl]acetyl]-1-oxa-8-azaspiro[4.5]decane]
cell growth inhibition ([1]; G466V): effective | confluency ([1]; over the course of 7 days): ≤ 30% | cell growth, in combination with trametinib ([1]; with 1 nM trametinib): failed to expand | BRAF^V600E protein remaining (BRAF V600E): 27% | degradation of class II mutant G469A [2]: capable of degrading | ERK phosphorylation by western blot (ERK phosphorylation): significantly drops off | RAF1 (CRAF) protein level change (RAF1 (a.k.a CRAF)): remain largely unchanged
